# Assay results published in US9708336B2, “Metallo-beta-lactamase inhibitors” (priority 2014, dated 2017).
# Like-named read-outs stand apart in the source and are kept apart here.
# Key:
# NDM-1 = NDM-1 (Klebsiella pneumoniae, UniProt C7C422); assay: biochemical; assay type: biochemical
# IMP-1 = IMP-1 (Serratia marcescens, UniProt P52699); assay: biochemical; assay type: biochemical; settings: read-out: IMP-1 IC50
# VIM-1 = VIM-1 (Pseudomonas aeruginosa (strain ATCC 15692 / DSM 22644 / CIP 104116 / JCM 14847 / LMG 12228 / 1C / PRS 101 / PAO1), UniProt A0A0F7KYQ8); assay: Enzyme activity: determination of IC50, fluorescence assay with CCF2-FA substrate (VIM-1); assay type: biochemical
# [1] = test system: Klebsiella pneumoniae expressing VIM-1 (IHMA599644); assay: Antibiotic potentiation activity: synergistic concentration (MITC95) with imipenem, OD600 growth; assay type: cell-based; settings: for Klebsiella pneumoniae expressing VIM-1 (IHMA 599644) MITC95: concentration giving 95% inhibition of bacterial growth
# Outline: (§1)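 Inoculum: saline suspension of overnight colonies, 1:100 into 1.1× CAMHB. Imipenem 4 μg/ml final (alt. 1 μg/ml) + compound; 35 °C, 22–24 h; absorbance read-out.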
# [2] = test system: Serratia marcescens expressing IMP-1 (CL5741); assay: as above; assay type: cell-based; settings: for Serratia marcescens expressing IMP-1 (CL5741) MITC95: concentration giving 95% inhibition of bacterial growth
# Outline: as §1
# [3] = test system: Escherichia coli expressing NDM-1 (CLB30016); assay: as above; assay type: cell-based; settings: for Escherichia coli expressing NDM-1 (CLB 30016) MITC95: concentration giving 95% inhibition of bacterial growth
# Outline: as §1
# [4] = fluorescence assay with CCF2-FA substrate, read-out: NDM-1 IC50
# [5] = fluorescence assay with CCF2-FA substrate
# [6] = NDM-1 enzyme, CCF2-FA substrate, read-out: NDM-1 IC50
# [7] = IMP-1 enzyme, CCF2-FA substrate
# [8] = VIM-1 enzyme, CCF2-FA substrate, read-out: VIM-1 IC50
# [9] = Klebsiella pneumoniae IHMA599644 (VIM-1), 95% growth inhibition
# [10] = Serratia marcescens CL5741 (IMP-1), 95% growth inhibition
# [11] = (CLB30016, NDM-1), 95% growth inhibition
# [12] = NDM-1 enzyme, CCF2-FA fluorescence assay, read-out: NDM-1 IC50
# [13] = IMP-1 enzyme, CCF2-FA fluorescence assay
# [14] = VIM-1 enzyme, CCF2-FA fluorescence assay, read-out: VIM-1 IC50
# [15] = Klebsiella pneumoniae expressing VIM-1 (IHMA599644), 95% growth inhibition
# [16] = Serratia marcescens expressing IMP-1 (CL5741), 95% growth inhibition
# [17] = Escherichia coli expressing NDM-1 (CLB30016), 95% growth inhibition
# [18] = VIM-1 IC50, VIM-1 enzyme, CCF2-FA substrate
# [19] = fluorescence assay with CCF2-FA substrate, read-out: VIM-1 IC50
# [20] = VIM-1 IC50, VIM-1 enzyme, CCF2-FA fluorescence assay
# Chain of NDM-1 (C7C422 whole entry, looked up, species assumed): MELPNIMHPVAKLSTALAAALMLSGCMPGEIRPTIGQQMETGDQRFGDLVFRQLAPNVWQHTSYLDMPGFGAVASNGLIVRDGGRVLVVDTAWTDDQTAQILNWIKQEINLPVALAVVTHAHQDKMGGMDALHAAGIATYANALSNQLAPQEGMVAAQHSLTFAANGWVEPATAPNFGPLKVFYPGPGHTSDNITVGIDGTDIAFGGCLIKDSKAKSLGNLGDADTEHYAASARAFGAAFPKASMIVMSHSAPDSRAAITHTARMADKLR
# Chain of IMP-1 (P52699 whole entry, looked up): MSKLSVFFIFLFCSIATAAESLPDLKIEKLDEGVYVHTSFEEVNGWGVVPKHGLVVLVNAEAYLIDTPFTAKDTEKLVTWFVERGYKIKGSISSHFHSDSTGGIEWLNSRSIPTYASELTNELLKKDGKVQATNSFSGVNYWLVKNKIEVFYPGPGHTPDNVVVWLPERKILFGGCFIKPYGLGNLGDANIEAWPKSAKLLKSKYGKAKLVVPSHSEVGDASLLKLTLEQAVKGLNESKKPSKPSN
Compound,IC50 (NDM-1; [6]) [nM],IC50 (IMP-1; [7]) [nM],"Klebsiella pneumoniae MITC95 [1, 9] [µM]","Serratia marcescens MITC95 [2, 10] [µM]","Escherichia coli MITC95 [3, 11] [µM]",IC50 (NDM-1; [12]) [nM],IC50 (IMP-1; [13]) [nM],"Klebsiella pneumoniae MITC95 [1, 15] [µM]","Serratia marcescens MITC95 [2, 16] [µM]","Escherichia coli MITC95 [3, 17] [µM]",further results
"NS(=O)(=O)c1cccc(CCc2ccccc2)c1-c1nnn[nH]1 [Example 154, 3-phenethyl-2-(1H-tetrazol-5-yl)benzenesulfonamide]",,,,,,,,,,,"IC50 (NDM-1; [4]): 3.28 nM; IC50 (IMP-1; [5]): 10.8 nM; IC50 (VIM-1; VIM-1 IC50, fluorescence assay with CCF2-FA substrate): 80.8 nM; Klebsiella pneumoniae expressing VIM-1 (IHMA 599644) MITC95 [1]: 100 µM; Serratia marcescens expressing IMP-1 (CL5741) MITC95 [2]: 0.3906 µM; Escherichia coli expressing NDM-1 (CLB 30016) MITC95 [3]: 2.344 µM"
"NCCCc1ccc(-c2ccc(C(F)(F)F)c(S(N)(=O)=O)c2-c2nnn[nH]2)cc1 [Example 735, 4′-(3-aminopropyl)-2-(1H-tetrazol-5-yl)-4-(trifluoromethyl)biphenyl-3-sulfonamide]",3.03,1.7,6.25,3.125,3.125,,,,,,IC50 (VIM-1; [8]): 0.388 nM
"Nc1nc2ccc(-c3cccc(S(N)(=O)=O)c3-c3nnn[nH]3)cc2s1 [Example 417, 3-(2-amino-1,3-benzothiazol-6-yl)-2-(1H-tetrazol-5-yl)benzenesulfonamide]",,,,,,0.76,49.8,9.375,2.344,1.953,IC50 (VIM-1; [14]): 8.53 nM
"NS(=O)(=O)c1c(C(F)(F)F)ccc(-c2ccc(C3CCN(CC4CCNCC4)CC3)cc2)c1-c1nnn[nH]1 [Example 668, 4′-[1-(piperidin-4-ylmethyl)piperidin-4-yl]-2-(1H-tetrazol-5-yl)-4-(trifluoromethyl)biphenyl-3-sulfonamide]",9.32,2.8,50,3.125,1.563,,,,,,IC50 (VIM-1; [8]): 7.04 nM
"NC1CCCC(N[C@H]2CC[C@H](c3ccc(C(F)(F)F)c(S(N)(=O)=O)c3-c3nnn[nH]3)CC2)C1 (stereo partly drawn) [Example 687, 3-{4-[(3-aminocyclohexyl)amino]cyclohexyl}-2-(1H-tetrazol-5-yl)-6-(trifluoromethyl)benzene sulfonamide]",25.2,94.3,25,6.25,3.125,,,,,,IC50 (VIM-1; [18]): 27.8 nM
"NS(=O)(=O)c1cccc(-c2ccc(CNCCc3ncc[nH]3)cc2)c1-c1nnn[nH]1 [Example 382, 4′-({[2-(1H-imidazol-2-yl)ethyl]amino}methyl)-2-(1H-tetrazol-5-yl)biphenyl-3-sulfonamide]",,,,,,12.8,212,50,3.125,1.563,IC50 (VIM-1; [14]): 220 nM
"CC(C)(O)C1CN(c2ccc(-c3cccc(S(N)(=O)=O)c3-c3nnn[nH]3)cn2)C1 [Example 624, 3-[6-[3-(1-hydroxy-1-methyl-ethyl)azetidin-1-yl]-3-pyridyl]-2-(1H-tetrazol-5-yl)benzenesulfonamide]",10.2,86.2,>200,12.5,7.813,,,,,,IC50 (VIM-1; [8]): 559 nM
"NS(=O)(=O)c1c(C(F)(F)F)ccc(C2CC2)c1-c1nnn[nH]1 [Example 489, 3-cyclopropyl-2-(1H-tetrazol-5-yl)-6-(trifluoromethyl)benzenesulfonamide]",,,,,,19.6,20.7,9.375,0.7813,1.563,IC50 (VIM-1; [14]): 9.83 nM
"NS(=O)(=O)c1c(C(F)(F)F)ccc(-c2ccc3c(c2)CNC3=O)c1-c1nnn[nH]1 [Example 746, 3-(1-oxo-2,3-dihydro-1H-isoindol-5-yl)-2-(1H-tetrazol-5-yl)-6-(trifluoromethyl)benzenesulfon-amide]",,,,,,,,,,,"IC50 (NDM-1; [4]): 2.27 nM; IC50 (IMP-1; [5]): 2.59 nM; IC50 (VIM-1; [19]): 0.234 nM; Klebsiella pneumoniae MITC95 ([1]; IHMA599644 (VIM-1), 95% inhibition of bacterial growth): 6.25 µM; Serratia marcescens MITC95 ([2]; CL5741 (IMP-1), 95% inhibition of bacterial growth): 6.25 µM; Escherichia coli MITC95 ([3]; CLB30016 (NDM-1), 95% inhibition of bacterial growth): 6.25 µM"
"Cc1ccc(-c2ccc(C(F)(F)F)c(S(N)(=O)=O)c2-c2nnn[nH]2)c2[nH]c(N)nc12 [Example 568, 3-(2-amino-4-methyl-1H-benzo[d]imidazol-7-yl)-2-(1H-tetrazol-5-yl)-6-(trifluoromethyl)benzenesulfonamide]",0.0983,1.17,1.563,1.563,0.3906,,,,,,IC50 (VIM-1; [8]): 0.161 nM
"NCCNc1nc2c(-c3cccc(S(N)(=O)=O)c3-c3nn[nH]n3)cccc2s1 [Example 639, 3-[2-(2-aminoethylamino)-1,3-benzothiazol-4-yl]-2-(2H-tetrazol-5-yl)benzenesulfonamide]",1.98,187,6.25,25,1.563,,,,,,IC50 (VIM-1; [8]): 10.5 nM
"NS(=O)(=O)c1cccc(-c2ccc(NCC3CCN3)nc2)c1-c1nnn[nH]1 (stereo not drawn) [Example 638, 3-[6-(azetidin-2-ylmethylamino)-3-pyridyl]-2-(1H-tetrazol-5-yl)benzenesulfonamide]",55,596,12.5,12.5,0.7813,,,,,,IC50 (VIM-1; [18]): 181 nM
"NS(=O)(=O)c1cccc(-c2ccc(CNCC3(O)CC3)cc2)c1-c1nnn[nH]1 [Example 380, 4′-({[(1-hydroxycyclopropyl)methyl]amino}methyl)-2-(1H-tetrazol-5-yl)biphenyl-3-sulfonamide]",,,,,,22.2,335,62.5,4.688,1.563,IC50 (VIM-1; [20]): 263 nM
"COc1cc(-c2cccc(S(N)(=O)=O)c2-c2nnn[nH]2)ccn1 [Example 135, 3-(2-methoxypyridin-4-yl)-2-(1H-tetrazol-5-yl)benzenesulfonamide]",,,,,,,,,,,IC50 (NDM-1; [4]): 4.47 nM; IC50 (IMP-1; [5]): 62.6 nM; IC50 (VIM-1; [19]): 61.9 nM; Klebsiella pneumoniae expressing VIM-1 (IHMA 599644) MITC95 [1]: 18.75 µM; Serratia marcescens expressing IMP-1 (CL5741) MITC95 [2]: 1.172 µM; Escherichia coli expressing NDM-1 (CLB 30016) MITC95 [3]: 1.172 µM
"NS(=O)(=O)c1c(C(F)(F)F)ccc(-c2ccc(CO)cc2)c1-c1nn[nH]n1 [Example 445, 4′-(hydroxymethyl)-2-(2H-tetrazol-5-yl)-4-(trifluoromethyl)-[1,1′-biphenyl]-3-sulfonamide]",,,,,,1.28,1.17,4.688,0.125,1.547,IC50 (VIM-1; [14]): 1.34 nM
"NS(=O)(=O)c1c(C(F)(F)F)ccc([C@H]2CC[C@H](C3=NCCN3)CC2)c1-c1nnn[nH]1 [Example 506, 3-(trans 4-(4,5-dihydro-1H-imidazol-2-yl)cyclohexyl)-2-(1H-tetrazol-5-yl)-6-(trifluoromethyl)benzenesulfonamide]",,35.7,100,6.25,4.688,,,,,,IC50 (NDM-1): 2.22 nM; IC50 (VIM-1; [18]): 41.4 nM
"Nc1ncc2ccc(-c3cccc(S(N)(=O)=O)c3-c3nnn[nH]3)cc2n1 [Example 420, 3-(2-Aminoquinazolin-7-yl)-2-(1H-tetrazol-5-yl)benzenesulfonamide]",,,,,,4.74,217,18.75,9.375,1.563,IC50 (VIM-1; [20]): 30.7 nM
"NS(=O)(=O)c1c(-c2ccc(C3CCNCC3)cc2)ccc(-c2ccc(C3CCNCC3)cc2)c1-c1nn[nH]n1 [Example 430, 3,6-bis[4-(4-piperidyl)phenyl]-2-(2H-tetrazol-5-yl)benzenesulfonamide]",,,,,,52.3,6.38,3.125,0.3906,1.563,IC50 (VIM-1; [20]): 50.8 nM
"Nc1ccc2cc(-c3cccc(S(N)(=O)=O)c3-c3nnn[nH]3)ccc2n1 [Example 403, 3-(2-amino-6-quinolyl)-2-(1H-tetrazol-5-yl)benzenesulfonamide]",,,,,,2.34,184,6.25,4.688,0.125,IC50 (VIM-1; [14]): 15.4 nM
